# Values of other authors in US10369118B2, “Method of reducing scarring” (Cole Research & Design, Inc., priority 2013, dated 2019).
# How the values were obtained:
# keratinocytes = conditions: appear to be cytotoxic
compound,measurement,setting,value
"Oc1ccc(/C=C/c2cc(O)cc(O)c2)cc1 [resveratrol, trans-3,4′,5-trihydroxystilbene]",concentrations cytotoxic to keratinocytes,keratinocytes,above 100 micromoles/liter
same,solubility in water,,very low solubility
